Test results: patent US6569404B1, “Phase shift colloids as ultrasound contrast agents” (priority 1993, dated 2003)
Several values for one entry are separate records, joined by “and”; a condition that tells them apart may be missing. Equal values may be shown once. Read-outs that look alike come from different tables or passages of the source.

Experiments:
[1] = Backscatter persistence and intensity of 2% mixtures in saline, 1000 mL water at 37° C., Hewlett-Packard 77020A; details: for Ratio of Persistence: 2% in saline, saline+air set as 1; for Ratio of Intensity: backscatter intensity qualitatively ranked from 0 to 5
Description: The following emulsions were formulated and tested according to methods described in Example 18.
All solutions were made as a 2% solution in saline. A volume of 0.1 cc of each chemical was comminuted with 5 cc saline through a 3-way stopcock for 25 passes. A volume of 1.0 mL of the mixture was immediately injected through a 1.2 μm filter into a stirring water bath containing 1000 mL water at 37° C. The resulting backscatter was then recorded with the use of a Hewlett-Packard 77020A Ultrasound System at […].

[2] = cited from earlier work; for B.P.: chemicals of Example 52
[3] = at 25° C.; cited from earlier work
[4] = Emulsion stability versus relative HLB of Pluronic L61/F68 mixtures; format: physicochemical; details: from stability of emulsions
From the text: The relative hydrophilic-lipophilic balance (HLB) is a method of optimizing a nonionic surfactant solution to achieve greatest stability. It is described in detail in Emulsions: Theory and Practice, Paul Becher, 1965, Robert E. Krieger Publishing Company Malabar, Fla., and references contained therein, and is incorporated here by reference. Solutions of Pluronic L61 (HLB 3.0) and F68 (HLB 29) were mixed to achieve intermediate HLB values by the following formula:
HLB=fL61 {HLB of L61}+ff68 {HLB of F68} The actual solutions, the calculated HLB values, and the stability of the final formulation (a 2% v/v emulsion of dodecafluorohexane) are contained in the following table: […]

[5] = Acoustic backscatter: gray scale intensity (videodensity) in water beaker at 37° C., Hewlett Packard 77020 scanner, 5.0 MHz
Description: Two solutions were prepared to simulate the administration to an organism of either a colloidal dispersion of a low boiling liquid or the liquid, neat.
The emulsions contained Fluorad 170 C as surfactant and were formed by applying acoustic energy from a waterbath sonicator.

[6] = Interfacial tension against dodecafluoropentane at 4° C., Kruss Drop Volume Tensiometer DVT-10; format: physicochemical; details: from graph of IFT versus HLB
Description: Mixtures of Pluronic P-123 and Pluronic F-127 were formed, yielding a 1% solution, v/v, with graded HLB numbers and the interfacial tension (IFT) of the solutions against dodecafluoropentane determined at 4° C., using a Kruss Drop Volume Tensiometer DVT-10, Kruss USA, Charlotte, N.C. The results are contained in the following table:
Interfacial tensions of various amphiphilic materials in aqueous solutions (all expressed as v/v solutions) against dodecafluoropentane were measured at 4° C. and emulsions created from each formulation, as described in Example 13.

dogs = details: Ziskin et al. 1972, cited from earlier work
[7] = In vitro ultrasound backscatter / echogenicity of formulations (qualitative); details: in words
[8] = Expected change in dispersion size from liquid and gas densities; details: calculated from cubic root of volume
Description: One can also calculate the expected change in dispersion size if one knows the relative densities of the dispersed liquid as a gas and liquid. For example, the Gas Data Book, by W Braker and A Mossman, Matheson, contains such data. Examining octafluorocyclobutane, one finds that 1 L of the liquid yields 188 L of gas at a pressure of 760 mm Hg and 15° C. Since the volume of a sphere is related to the diameter of a sphere by the cubic root of the volume, the phase transition for an octafluorobutane emulsion particle will cause a 5.7-fold increase in diameter.

[9] = 760 mm Hg and 15° C.; Gas Data Book; cited from earlier work
[10] = 1.0 mL in 1000 mL water at 37° C.
[11] = dispersed phase of emulsions of Example 18
[12] = Chemical List of low boiling liquids, Example 45
[13] = boiling point under standard pressure conditions, chemical list arranged by total atoms
[14] = emulsion with Fluorad 170 C, 0.2 mL in 1000 mL water at 37° C., six seconds, backgrounds 2.9, 3.0, 3.6

| Compound | Boiling Point [2, 12] [degrees Celcius] | Boiling Point [2, 13] [degrees Celcius] | also measured |
| --- | --- | --- | --- |
| ClCCCl [1,2, Dichloroethane, reference compound] | – | – | Ratio of Persistence [1, 10]: 6; Ratio of Intensity [1]: 0.25; B.P. [2]: 83 °C; Vapor Pressure [3]: 87 mmHg at 25 °C |
| FC(F)(F)C(Cl)Br (centres unmarked) [Halothane] | – | – | Ratio of Persistence [1, 10]: 6; Ratio of Intensity [1]: 0.25; B.P. [2]: 50 °C |
| CCCCCCCCC [Nonane] | – | – | Ratio of Persistence [1, 10]: 9; Ratio of Intensity [1]: 0.5; B.P. [2]: 151 °C |
| FC1(F)C(F)(F)C(F)(F)C2(F)C(F)(F)C(F)(F)C(F)(F)C(F)(F)C2(F)C1(F)F (centres unmarked) [Perfluorodecalin] | – | – | Ratio of Persistence [1, 10]: 9; Ratio of Intensity [1]: 2.0; B.P. [2]: 141 °C |
| FC(F)(F)C(F)(F)C(F)(F)C(F)(F)C(F)(F)C(F)(F)F [Perfluorohexane, reference compound] | – | – | relative HLB established [4]: 6-8; Boiling Point [2, 11]: 59 °C |
| O=[N+]([O-])C(F)(F)C(F)(F)C(F)(F)F [Propane, heptafluoro-1-nitro] | 25.0 | – | – |
| O=NC(F)(F)C(F)(F)C(F)(F)F [Propane, heptafluoro-1-nitrose] | −12.0 | – | – |
| FC(F)(F)C(F)(F)C(F)(F)F [Propane, perfluoro] | −36.0 | – | – |
| FC(F)=C(F)C(F)(F)F [Propylene, perfluoro] | −29.4 | – | – |
| C#CC [Propyne] | −23.2 | – | – |
| F[C](F)(F)[Ge]([C](F)(F)F)([C](F)(F)F)[C](F)(F)F [Tetrakis(trifluoromethyl) germane] | – | 31.7 | – |
| N#CC(F)(F)F [Trifluoroacetonitrile] | −64.0 | – | – |
| FC(F)(F)SC(F)(F)F [Trifluoromethyl sulfide] | −22.2 | – | – |
| CN(C)C [Trimethyl amine] | 2.9 | – | – |
| F[C](F)(F)[Ge]([Cl])([C](F)(F)F)[C](F)(F)F [Tris-(trifluoromethyl)-germaniumchloride] | – | 37 | – |
| [F][W]([F])([F])([F])([F])[F] [Tungsten hexafluoride] | 17.5 | – | – |
| C#CC=C [Vinyl acetylene] | 5.1 | – | – |
| C=COC=C [Vinyl ether] | 28.0 | – | – |
| [Xe] [Xenon] | −108.0 | – | – |
| CP(C)NP(C)C [bis(Dimethyl phosphino) amine] | 33.5 | – | – |
| O=C(C(F)(F)F)C(F)(F)Br [bromo-pentafluoro-acetone] | – | 31 | – |

| Compound | Boiling Point [2, 12] [degrees Celcius] | Boiling Point [2, 13] [degrees Celcius] | also measured |
| --- | --- | --- | --- |
| CCCCB(F)F [butyl-difluoro-borane] | – | 35 | – |
| FC(F)(F)C(F)(F)C(F)(F)C(F)(F)F [decafluoro-butane] | – | −1.7 | – |
| FC(F)I [difluoro-iodo-methane] | – | 21.6 | – |
| CSC [dimethyl sulfide] | – | 36 | – |
| FC(F)(F)C(F)(F)C(F)(F)C(F)(F)C(F)(F)F [dodecafluoropentane] | 30.5 | – | time over which backscatter diminished [1, 10]: 4 to 5 min; Ratio of Persistence [1, 10]: 24; Ratio of Intensity [1]: 5; Ratio of Intensity ([1]; listed as Dodecafluoropentane): 5.0; grayscale intensity [5, 14]: 58.5 units; grayscale intensity ([5]; fifty-two seconds post-injection into 1000 mL water at 37° C., gray scale of 2 to 254): 5.0; grayscale intensity ([5]; five seconds post-injection into 1000 mL water at 37° C., gray scale of 2 to 254, 0.1 mL emulsion (before 4.27) or 0.2 mL neat liquid (before 4.9)): 7.7; B.P. [2]: 29 °C; Boiling Point [2]: 28-29 °C; Boiling Point [2, 11]: 29 °C; HLB for the dispersed phase liquid [6]: about 14; Vapor Pressure [3]: 646 mmHg at 25 °C |
| CCOCC [ether, diethyl ether] | 34.5 | – | lethality (dogs; injections of 20 mL): proved fatal; contrast effect (Doppler signal) (dogs; intraarterial): greatest contrast effect of any agent that we tried; in vitro ultrasound backscatter characteristics [7]: useful contrast signal |
| CCC1CC1 [ethyl-cyclopropane] | – | 35.8 | – |
| CCN(C)C [ethyl-dimethyl-amine] | – | 36.4 | – |
| CCOC [ethyl-methyl ether] | – | 6.6 | – |
| CC[Si](F)(F)F [ethyl-trifluoro-silane] | – | −4.4 | – |
| C=COCC [ethyl-vinyl ether] | – | 35 | – |
| NC=O [formamide] | – | 2.18 | – |
| CC(C)N [isopropylamine] | – | 31.7 | – |
| CC1CCC1 [methyl-cyclobutane] | – | 36 | – |
| CC1CC1 [methyl-cyclopropane] | – | 0.7 | – |
| FC(F)(F)C(F)(F)C(F)(C(F)(F)F)C(F)(F)F [nonafluoro-2-trifluoromethyl-butane] | – | 30.12 | – |
| FC1(F)C(F)(F)C(F)(F)C1(F)F [octafluorocyclobutane] | – | – | increase in diameter of emulsion particle on phase transition [8]: 5.7 fold; volume of gas from 1 L of the liquid [9]: 188 L |
| FC1(F)C(F)(F)C(F)(F)C(F)(F)C1(F)F [perfluorocyclopentane] | – | – | grayscale intensity [5, 14]: 158.9 units; Boiling Point [2]: 22.5 °C and 22 °C |
| C1CC12CC2 [spiropentane] | – | 35 | – |
| CCC[Si](F)(F)F [trifluoro-propyl-silane] | – | 25 | – |
